This is an account of results in PMC6204753, “Non-native autoinducer analogs capable of modulating the SdiA quorum sensing receptor in Salmonella enterica serovar Typhimurium” (Beilstein Journal of Organic Chemistry, 2018).

Read-outs that look alike come from different tables or passages of the source.

Assay [1] has as its target T1, SdiA (Salmonella enterica subsp. enterica serovar Typhimurium, UniProt O66040). In words: S. Typhimurium-pJNS25 SdiA reporter, agonism (luminescence). The assay is classed as cell-based. The settings on record: for EC50: agonism dose–response; for Emax: read-out: activation (%). The text has this:
(§1) Biological assays for SdiA activity. Cell-based reporter strains that rely on detecting the transcriptional activity of LuxR-type receptors are commonly used to assess the activity of exogenous ligands. We used the S. Typhimurium-pJNS25 reporter strain constructed by Smith and Ahmer and also used by Janssens et al. to examine SdiA activity. This strain naturally produces SdiA and contains a reporter plasmid with the promoter region for srgE fused to the luxABCDE operon of V. fischeri (see Experimental section for details of all strains and plasmids). SdiA activity is thus reported by the production of luciferase and resulting bioluminescence. We also prepared an SdiA reporter in E. coli (JLD271-pJN105SE-pSC11SE) to examine S. Typhimurium SdiA activity in an alternate background and with a different reporter gene output. […] This reporter construct uses an arabinose inducible promoter to produce S. Typhimurium SdiA and the promoter region for srgE fused to lacZ to report SdiA activity. SdiA activity is then measured using standard β-galactosidase assays. In both reporter strains, signal was normalized to the difference between the positive control (10 μM OOHL) and the negative control (1% DMSO; no compound).
(§2) Salmonella SdiA reporter assay. S. Typhimurium-pJNS25 was grown 16–18 h overnight in LB, diluted 1:100 in fresh LB medium, and then incubated for 6 h at 37 °C with shaking at 200 rpm in the presence of compounds (1% DMSO). […] All compounds were screened at 100 μM and 1 μM in triplicate in agonism and antagonism assays. […] Dose–response analyses were performed by preparing dilutions of compounds in DMSO and testing each concentration in the agonism or antagonism assays. Competition dose–response assays (data in Figure 5) were performed in the same manner as the antagonism assays, except instead of OOHL being added to the subculture, the antagonist being tested was added. Non-linear regression curve fits were generated using GraphPad Prism software (version 6) using variable slope (four parameter) dose–response analysis.

The target in assay [2] is T1, SdiA. In words: S. Typhimurium-pJNS25 SdiA reporter, competitive antagonism against 10 nM L-OOHL. The assay is classed as cell-based. The settings on record: for inhibition at 1 µM: read-out: Antagonism 1 μM Inhibition (%); for inhibition at 100 µM: read-out: Antagonism 100 μM Inhibition (%); for Emax: maximal inhibition, 100% minus lowest % activity in presence of 10 nM L-OOHL (2), read-out: inhibition (%).
From the text: as §1, §2

[3] abbreviates: maximal activity (efficacy) from agonism dose–response, 10 μM OOHL = 100%, DMSO = 0%.
Where [4] appears, read: 1 μM compound, average ± STD, change in activity from 10 nM 2 (OOHL).
Where [5] appears, read: 100 μM compound, average ± STD, change in activity from 10 nM 2 (OOHL).
Where [6] appears, read: maximal activation of the antagonists (partial agonism), Table 3.

T1 sequence (O66040 entry or part of it): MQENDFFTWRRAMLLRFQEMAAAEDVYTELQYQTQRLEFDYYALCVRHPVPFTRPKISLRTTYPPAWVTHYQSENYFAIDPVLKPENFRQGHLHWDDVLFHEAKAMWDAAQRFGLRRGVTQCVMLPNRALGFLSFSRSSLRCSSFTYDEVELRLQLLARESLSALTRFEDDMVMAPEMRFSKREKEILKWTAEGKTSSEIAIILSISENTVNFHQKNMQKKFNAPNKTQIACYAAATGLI

Take `CCCCCC(=O)N[C@H]1CCOC1=O` [A2]: the EC50 (commonly the midpoint of the concentration-response curve) at SdiA [1] (read-out: EC50) was 20.9 nM. Moreover, on SdiA [1] (setting [3]), the Emax was 81%. Moreover, on SdiA [2] (setting [4]), the inhibition (usually the relative decrease from the control value, in per cent) at 1 µM is 15 ± 4%. At SdiA [2] (setting [5]), the inhibition at 100 µM amounted to 3 ± 1%.

`CCCCCCCC(=O)N[C@H]1CCOC1=O` [A3]: on SdiA [1] (read-out: EC50), the EC50 amounted to 18.1 nM. The “Antagonism 1 μM Inhibition (%)” value on SdiA [2] (setting [4]) was 10 ± 8%. For the same compound, the “Antagonism 100 μM Inhibition (%)” value on SdiA [2] (setting [5]) worked out at 13 ± 14%.

As to `CCCCCCCCCCCC(=O)N[C@H]1CCOC1=O` [A5], the Emax was 57% on SdiA [1] (setting [6]) and more than 50% on SdiA [2]. On SdiA [2] (setting [4]), the inhibition at 1 µM turned out to be 17 ± 10%. Moreover, on SdiA [2] (setting [5]), the inhibition at 100 µM amounted to 43 ± 4%.

As to `CCCCCCCCCCCCCCCC(=O)N[C@H]1CCOC1=O` [A6], the Emax on SdiA [1] (setting [6]) is 20%; at SdiA [2], more than 50%. Further, the inhibition at 1 µM on SdiA [2] (setting [4]) is 17 ± 12%. Moreover, the inhibition at 100 µM at SdiA [2] (setting [5]) worked out at 38 ± 5%. Also, at SdiA [2] (against 10 nM L-OOHL (EC90)), the IC50 (as a rule, the concentration that gives 50% inhibition) amounted to 1750 nM.

Turning to `CCCCCCCC(=O)CC(=O)N[C@H]1CCOC1=O` [A7], the EC50 on SdiA [1] (read-out: EC50) was 26.6 nM. In addition, the Emax on SdiA [1] (setting [3]) was determined as 85%. Moreover, the inhibition at 1 µM at SdiA [2] (setting [4]) is -4 ± 19%. Further, the inhibition at 100 µM at SdiA [2] (setting [5]) was -2 ± 10%.

For `[N-]=[N+]=NCCCCCCCCCCCC(=O)N[C@H]1CCOC1=O` [Az-11], at SdiA [1], the EC50 was 125 nM and the Emax amounted to 110%. Further, the “activation (%)” value on SdiA [1] (setting [3]) is listed as “fully agonize”. At SdiA [2] (setting [4]), the inhibition at 1 µM was -1 ± 17%. In addition, the inhibition at 100 µM on SdiA [2] (setting [5]) was -35 ± 6%.

For the compound `O=C(Cc1ccc(Br)cc1)N[C@@H]1CCOC1=O` [B4], the Emax on SdiA [1] (setting [6]) worked out at 52%; at SdiA [2], 50%. Besides, the inhibition at 1 µM on SdiA [2] (setting [4]) is 41 ± 15%. For the same compound, on SdiA [2] (setting [5]), the inhibition at 100 µM was 16 ± 11%.

For `O=C(CCC1CCCCC1)N[C@H]1CCOC1=O` [B11], the EC50 on SdiA [1] (read-out: EC50) was found to be 50.1 nM. Further, the Emax on SdiA [1] (setting [3]) came to 93%. Further, on SdiA [2] (setting [4]), the inhibition at 1 µM is 6 ± 5%. Moreover, on SdiA [2] (setting [5]), the inhibition at 100 µM amounted to 8 ± 14%.

On to `O=C(CC1CCCC1)N[C@H]1CCOC1=O` [B12], for which, on SdiA [1] (read-out: EC50), the EC50 is 54.7 nM. The Emax on SdiA [1] (setting [3]) was 93%. At SdiA [2] (setting [4]), the inhibition at 1 µM was determined as 7 ± 7%. Also, on SdiA [2] (setting [5]), the inhibition at 100 µM amounted to 14 ± 9%.

Turning to `O=C(Cc1cccc(Cl)c1)N[C@H]1CCOC1=O` [C6], the EC50 on SdiA [1] (read-out: EC50) was 51.9 nM. Moreover, the Emax on SdiA [1] (setting [3]) turned out to be 95%. Further, the inhibition at 1 µM on SdiA [2] (setting [4]) was determined as 9 ± 16%. The inhibition at 100 µM on SdiA [2] (setting [5]) is -20 ± 6%.

For `O=C(Cc1cccc(Br)c1)N[C@H]1CCOC1=O` [C8], on SdiA [1] (read-out: EC50), the EC50 came out at 19.1 nM. The Emax on SdiA [1] (setting [3]) worked out at 96%. Besides, on SdiA [2] (setting [4]), the inhibition at 1 µM was 21 ± 10%. Further, the inhibition at 100 µM on SdiA [2] (setting [5]) is -22 ± 9%.

On to `O=C(Cc1ccccc1Br)N[C@H]1CCOC1=O` [C9], for which the 50% effective concentration (EC50) on SdiA [1] (read-out: EC50) was determined as 63.5 nM. Also, at SdiA [1] (setting [3]), the Emax was determined as 103%. Also, the inhibition at 1 µM at SdiA [2] (setting [4]) was found to be 9 ± 8%. In addition, the inhibition at 100 µM on SdiA [2] (setting [5]) was -48 ± 13%.

Regarding `O=C(Cc1ccc(I)cc1)N[C@H]1CCOC1=O` [C10], on SdiA [1], the half-maximal effective concentration (EC50) came out at 47.2 nM and the Emax worked out at 67%. For the same compound, on SdiA [2], the inhibition at 1 µM stood at 28 ± 6% and the inhibition at 100 µM turned out to be 27 ± 13%.

Consider `O=C(Cc1cccc(I)c1)N[C@H]1CCOC1=O` [C11], for which the EC50 at SdiA [1] (read-out: EC50) stood at 20.6 nM. Besides, on SdiA [1] (setting [3]), the Emax worked out at 90%. For the same compound, the inhibition at 1 µM on SdiA [2] (setting [4]) turned out to be 15 ± 11%. At SdiA [2] (setting [5]), the inhibition at 100 µM is -4 ± 2%.

Regarding `O=C(Cc1cccc([N+](=O)[O-])c1)N[C@H]1CCOC1=O` [C14], the EC50 at SdiA [1] (read-out: EC50) turned out to be 28.3 nM. Moreover, the inhibition at 1 µM at SdiA [2] (setting [4]) was found to be 0%. Further, the inhibition at 100 µM at SdiA [2] (setting [5]) was -17 ± 9%.

For the compound `O=C(Cc1ccc(-c2ccccc2)cc1)N[C@H]1CCOC1=O` [C18], the Emax on SdiA [1] (setting [6]) amounted to 48%; on SdiA [2], 40%. Further, the inhibition at 1 µM on SdiA [2] (setting [4]) was determined as 11 ± 3%. Also, at SdiA [2] (setting [5]), the inhibition at 100 µM came to 52 ± 10%.

For the compound `COc1ccc(CC(=O)N[C@H]2CCOC2=O)cc1` [C24], at SdiA [1] (read-out: EC50), the EC50 was found to be 252 nM. For the same compound, the “Antagonism 1 μM Inhibition (%)” value on SdiA [2] (setting [4]) is recorded as -11 ± 3%. At SdiA [2] (setting [5]), the “Antagonism 100 μM Inhibition (%)” value stood at 4 ± 16%.

As for `Cc1cccc(CC(=O)N[C@H]2CCOC2=O)c1` [E1], at SdiA [1] (read-out: EC50), the EC50 turned out to be 66.4 nM. For the same compound, the Emax on SdiA [1] (setting [3]) is 99%. On SdiA [2] (setting [4]), the inhibition at 1 µM was -6 ± 7%. The inhibition at 100 µM at SdiA [2] (setting [5]) is -14 ± 13%.
